How the values of data set [1] were obtained:
(§1) Each tablet contains 450 mg of pharmaceutical grade of GSH powder.
(§2) Seven (7) subjects with gout and hyperuricemia were examined. Specifically, these seven subjects were part of an open-label, twelve (12) weeks study in which they received 2700 mg daily (450 mg/tablet, 2 tablets/time, 3 times/day) of (2S)-2-Amino-4-{[(1R)-1-[(carboxymethyl)carbamoyl]-2-sulfanylethyl]carbamoyl}butanoic acid (hereinafter “CT° 1”).

The procedure of data set [2]: as §1, §2
All of the subjects were classified as renally impaired (glomerular filtration rate <80 ml/minute). A serum creatinine test measures the level of creatinine in the blood and provides an estimate of glomerular filtration rate that indicates the excretory function of the kidney. If the kidney functions improperly, an increased level of creatinine may accumulate in the blood.
The source holds these as a separate data set.

For data set [3] the following is noted: initiation during an acute gout attack, 57 men with crystal-proven gout; cited from earlier work.
For data set [4] the following is noted: in vivo; cited from earlier work.
[5] abbreviates: after 12 weeks of treatment versus first visit, 2700 mg daily oral.

In the case of `N[C@@H](CCC(=O)N[C@@H](CS)C(=O)NCC(=O)O)C(=O)O` [CT°I, (2S)-2-Amino-4-{[(1R)-1-[(carboxymethyl)carbamoyl]-2-sulfanylethyl]carbamoyl}butanoic acid], in data set [1] (7 subjects, 2700 mg daily oral, 12 weeks, first visit 49.90±8.41 μg/dL), the “mean blood lead level after 12 weeks of treatment” value came out at 37.26 ± 6.29 µg/dL. Also, in data set [1] (7 subjects, 2700 mg daily oral, 12 weeks, first visit 521.07±40.11 mg/L), the “mean serum urate after 12 weeks of treatment” value turned out to be 346.46 ± 21.17 mg/L. Moreover, in data set [1] (setting [5]), the “reduction of blood lead level” value stood at 25.33% and the “reduction of serum urate” value is recorded as 33.51%. In data set [1] (p<0.05, 2700 mg daily oral), the “significance of the reduction of blood lead level” value is “significantly different after 12 weeks of treatment” and the “significance of the reduction of serum urate” value is listed as “significantly different after 8 weeks of treatment”. The “mean serum creatinine after 12 weeks of treatment” value in data set [2] (7 subjects, 2700 mg daily oral, 12 weeks, first visit 135.29±6.89 μmol/L) stood at 99.00 ± 4.45 µmol/L. The “reduction of serum creatinine” value in data set [2] (setting [5]) was found to be 26.82%. The “significance of the reduction of serum creatinine” value in data set [2] (p<0.05, 2700 mg daily oral) is given as “significantly different after 8 weeks of treatment”.

As for `Oc1ncnc2[nH]ncc12` [allopurinol], the “effect on daily pain, recurrent flares, or inflammatory markers” value in data set [3] is reported as “no significant difference”.

Consider `COc1cc2c(c(OC)c1OC)-c1ccc(OC)c(=O)cc1[C@@H](NC(C)=O)CC2` [colchicine], for which, in data set [4], the “part of the dose excreted unchanged by the kidney” value is on record as 10-20% and the removal by hemodialysis result is “not removable by hemodialysis”.
